T/C data for 24 compounds are collected here from PubChem BioAssay AID330 (DTP/NCI, 2004).

Several values for one entry are separate records, joined by “and”; a condition that tells them apart may be missing. Equal values may be shown once. Toxic doses and inconclusive results are not listed.

The test concerns P388 leukemia ip, CD2F1 mice, survival T/C. The experiment in a line: NCI In Vivo Anticancer Drug Screen. Data for tumor model P388 Leukemia (intraperitoneal) in CD2F1 (CDF1) mice. The settings on record: endpoint: median survival time, higher = longer survival. In short, it runs like this:
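Mice carrying the transplanted tumor received test compound or vehicle. Survival was recorded in each group, and the value is the treated-group measurement divided by that of the vehicle-treated control group.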

Where [1] appears, read: dose: 60.0 mg/kg/injection, schedule: Q01DX005 (ip), vehicle: saline with Tween-80.
Where [2] appears, read: dose: 50.0 mg/kg/injection, schedule: Q01DX005 (ip), vehicle: saline with Tween-80.
[3] abbreviates: dose: 50.0 mg/kg/injection, schedule: Q01DX009 (ip), vehicle: saline with Tween-80.
The mark [4] stands for this setting: dose: 100.0 mg/kg/injection, schedule: Q01DX009 (ip), vehicle: saline with Tween-80.
Where [5] appears, read: dose: 200.0 mg/kg/injection, schedule: Q01DX009 (ip), vehicle: saline with Tween-80.
Setting [6] is: dose: 60.0 mg/kg/injection, schedule: Q01DX005 (ip), vehicle: Klucel (hydroxypropylcellulose) (HPC).
Setting [7] is: dose: 120.0 mg/kg/injection, schedule: Q01DX005 (ip), vehicle: Klucel (hydroxypropylcellulose) (HPC).
[8] abbreviates: dose: 240.0 mg/kg/injection, schedule: Q01DX005 (ip), vehicle: Klucel (hydroxypropylcellulose) (HPC).
Setting [9] is: dose: 100.0 mg/kg/injection, schedule: Q01DX009 (ip), vehicle: saline.
The mark [10] stands for this setting: dose: 200.0 mg/kg/injection, schedule: Q01DX009 (ip), vehicle: saline.
[11] abbreviates: dose: 50.0 mg/kg/injection, schedule: Q01DX005 (ip), vehicle: Klucel (hydroxypropylcellulose) (HPC).
Where [12] appears, read: dose: 15.0 mg/kg/injection, schedule: Q01DX005 (ip), vehicle: saline with Tween-80.
Where [13] appears, read: dose: 30.0 mg/kg/injection, schedule: Q01DX005 (ip), vehicle: saline with Tween-80.

Regarding `CN(Nc1ccnc(=O)[nH]1)c1ccccc1`, the T/C by setting is: under setting [1], 105 % of control; (dose: 120.0 mg/kg/injection, schedule: Q01DX005 (ip), vehicle: saline with Tween-80) 102 % of control; (dose: 240.0 mg/kg/injection, schedule: Q01DX005 (ip), vehicle: saline with Tween-80) 93 % of control.
With `CCCn1c(C)nc2cc(C)cc(N)c21`, the T/C (dose: 12.5 mg/kg/injection, schedule: Q01DX005 (ip), vehicle: saline with Tween-80) is 100 % of control; the T/C (dose: 25.0 mg/kg/injection, schedule: Q01DX005 (ip), vehicle: saline with Tween-80) is 89 % of control; the T/C under setting [2] is 90 % of control and 94 % of control.
Regarding `CCN1C(=O)CCN(S(=O)(=O)c2ccc(-n3nc(C)cc3C)cc2)C1=S`, the T/C reads like this: under setting [2], 99 % of control; (dose: 100.0 mg/kg/injection, schedule: Q01DX005 (ip), vehicle: saline with Tween-80) 95 % of control; (dose: 200.0 mg/kg/injection, schedule: Q01DX005 (ip), vehicle: saline with Tween-80) 103 % of control.
As for `C=C1C(=O)O[C@@H]2C3=C(C)C(=O)C=C[C@]3(C)CC[C@@H]12`, the T/C (dose: 100.0 mg/kg/injection, schedule: Q04DX002 (ip), vehicle: saline with Tween-80) is 109 % of control.
In the case of `CCCCCCCCCCCC(=O)N(CCOC(=O)c1ccccc1)CCc1ccccc1`, the T/C is, setting by setting: under setting [3], 109 % of control; under setting [4], 109 % of control; under setting [5], 116 % of control.
For the compound `O=c1c2cc(O)c(O)cc2oc2cc(O)c(C3OC(CO)C(O)C(O)C3O)c(O)c12` (configuration not stated), the T/C runs as follows: (dose: 100.0 mg/kg/injection, schedule: Q01DX001 (ip), vehicle: saline) 101 % of control; (dose: 400.0 mg/kg/injection, schedule: Q01DX001 (ip), vehicle: saline) 101 % of control.
Take `C=CCN1c2c(nc(N)[nH]c2=O)NCC1CNc1ccc(C(=O)NC(CCC(=O)O)C(=O)O)cc1` (configuration not stated): the T/C runs as follows: (dose: 50.0 mg/kg/injection, schedule: Q04DX003 (ip), vehicle: alkali diluted with saline) 113 % of control; (dose: 100.0 mg/kg/injection, schedule: Q04DX003 (ip), vehicle: alkali diluted with saline) 95 % of control; (dose: 200.0 mg/kg/injection, schedule: Q04DX003 (ip), vehicle: alkali diluted with saline) 111 % of control.
`O=S(=O)(c1cccc(C(F)(F)F)c1)N(CCCCCN(S(=O)(=O)c1cccc(C(F)(F)F)c1)S(=O)(=O)c1cccc(C(F)(F)F)c1)S(=O)(=O)c1cccc(C(F)(F)F)c1`: the T/C is 101 % of control under setting [6], 92 % of control under setting [7] and 88 % of control under setting [8].
`CCOC(=O)C(Cc1c[nH]c2ccccc12)NC(=O)C1(O)C(O)C2(CC)C=CCN3CCC4(c5cc(C6(C(=O)OC)CC7CC(CC)CN(CCc8c6[nH]c6ccccc86)C7)c(OC)cc5N(C)C14)C32` (configuration not stated): the T/C (dose: 2.0 mg/kg/injection, schedule: Q01DX001 (ip), vehicle: saline) is 99 % of control; the T/C (dose: 4.0 mg/kg/injection, schedule: Q01DX001 (ip), vehicle: saline) is 118 % of control; the T/C (dose: 16.0 mg/kg/injection, schedule: Q01DX001 (ip), vehicle: saline) is 169 % of control; the T/C (dose: 32.0 mg/kg/injection, schedule: Q01DX001 (ip), vehicle: saline) was 179 % of control; the T/C (dose: 64.0 mg/kg/injection, schedule: Q01DX001 (ip), vehicle: saline) was 178 % of control.
`C(=C=C(c1ccccc1)c1ccccc1)=C(c1ccccc1)c1ccccc1`: the T/C reads like this: (dose: 50.0 mg/kg/injection, schedule: Q01DX009 (ip), vehicle: saline) 101 % of control; under setting [9], 93 % of control; under setting [10], 92 % of control.
In the case of `Nc1cc([N+](=O)[O-])ccc1-c1ccc(NC(=O)CCNC=O)cc1`, the T/C by setting is: (dose: 12.5 mg/kg/injection, schedule: Q01DX009 (ip), vehicle: other) 93 % of control; (dose: 25.0 mg/kg/injection, schedule: Q01DX009 (ip), vehicle: other) 97 % of control; (dose: 50.0 mg/kg/injection, schedule: Q01DX009 (ip), vehicle: other) 90 % of control; (dose: 100.0 mg/kg/injection, schedule: Q01DX009 (ip), vehicle: other) 93 % of control; (dose: 200.0 mg/kg/injection, schedule: Q01DX009 (ip), vehicle: other) 91 % of control.
In the case of `C=CCC(C(=O)OCCN(CC)CC)(c1ccccc1)c1ccccc1`, the T/C is 100 % of control (dose: 0.75 mg/kg/injection, schedule: Q01DX009 (ip), vehicle: saline); 94 % of control (dose: 1.5 mg/kg/injection, schedule: Q01DX009 (ip), vehicle: saline); 100 % of control (dose: 3.0 mg/kg/injection, schedule: Q01DX009 (ip), vehicle: saline); 103 % of control (dose: 6.0 mg/kg/injection, schedule: Q01DX009 (ip), vehicle: saline); 100 % of control (dose: 12.0 mg/kg/injection, schedule: Q01DX009 (ip), vehicle: saline).
Turning to `COc1ccc(/C=C/C(=O)C(CN(C)C)CN(C)C)cc1`, the T/C runs as follows: (dose: 1.56 mg/kg/injection, schedule: Q01DX005 (ip), vehicle: saline) 109 % of control; (dose: 3.12 mg/kg/injection, schedule: Q01DX005 (ip), vehicle: saline) 96 % of control; (dose: 6.25 mg/kg/injection, schedule: Q01DX005 (ip), vehicle: saline) 106 % of control.
As to `O=C(O)Cc1cn2cc(Br)ccc2n1`, the T/C reads like this: (dose: 100.0 mg/kg/injection, schedule: Q01DX001 (ip), vehicle: saline with Tween-80) 105 % of control; (dose: 200.0 mg/kg/injection, schedule: Q01DX001 (ip), vehicle: saline with Tween-80) 109 % of control; (dose: 400.0 mg/kg/injection, schedule: Q01DX001 (ip), vehicle: saline with Tween-80) 104 % of control.
In the case of `CCCCN=Cc1ccccc1O.CCCCN=Cc1ccccc1O.[Cu]`, the T/C under setting [11] was 99 % of control.
`CC(C)CC([N+](C)(C)C)P(=O)([O-])O` (configuration not stated): the T/C runs as follows: under setting [9], 100 % of control; under setting [10], 95 % of control; (dose: 400.0 mg/kg/injection, schedule: Q01DX009 (ip), vehicle: saline) 100 % of control.
As for `CCOC(=O)N1CC23C(C)C(C)=C(C)C2C3(C)N1C(=O)OCC` (configuration not stated), the T/C is 100 % of control under setting [11]; 100 % of control (dose: 100.0 mg/kg/injection, schedule: Q01DX005 (ip), vehicle: Klucel (hydroxypropylcellulose) (HPC)); 98 % of control (dose: 200.0 mg/kg/injection, schedule: Q01DX005 (ip), vehicle: Klucel (hydroxypropylcellulose) (HPC)).
As to `COc1cccc2c1NC(OC)C1CC(/C=C/C(=O)N(C)C)=CN1C2=O` (configuration not stated), the T/C (dose: 320.0 micrograms/kg/injection, schedule: Q01DX005 (ip), vehicle: saline with Tween-80) is 155 % of control.
As for `COc1ccc2c(c1)C(O)(CN)CCCCC(OC)CCCC2` (configuration not stated), the T/C runs as follows: (dose: 7.5 mg/kg/injection, schedule: Q01DX005 (ip), vehicle: saline with Tween-80) 100 % of control; under setting [12], 101 % of control; under setting [13], 99 % of control; under setting [1], 101 % of control.
Take `CC12CCC3C4CCC(=O)C(O)=C4CCC3C1CCC2OC(=O)CCC1CCCC1` (configuration not stated): the T/C by setting is: (dose: 50.0 mg/kg/injection, schedule: Q04DX003 (sc), vehicle: Klucel (hydroxypropylcellulose) (HPC)) 99 % of control; (dose: 100.0 mg/kg/injection, schedule: Q04DX003 (sc), vehicle: Klucel (hydroxypropylcellulose) (HPC)) 118 % of control; (dose: 200.0 mg/kg/injection, schedule: Q04DX003 (sc), vehicle: Klucel (hydroxypropylcellulose) (HPC)) 101 % of control.
For `Cc1nnc2n(N)c(=O)c(CC(=O)c3ccc(F)cc3)nn12`, the T/C is, setting by setting: under setting [6], 96 % of control; under setting [7], 88 % of control; under setting [8], 90 % of control.
For `NC(Cc1ccc(O)c(Cl)c1)C(=O)O` (configuration not stated), the T/C by setting is: (dose: 50.0 mg/kg/injection, schedule: Q01DX005 (ip), vehicle: saline) 98 % of control; (dose: 100.0 mg/kg/injection, schedule: Q01DX005 (ip), vehicle: saline) 98 % of control; (dose: 200.0 mg/kg/injection, schedule: Q01DX005 (ip), vehicle: saline) 95 % of control.
In the case of `C[n+]1ccc2ccccc2c1`, the T/C by setting is: under setting [12], 109 % of control; under setting [13], 100 % of control; under setting [1], 100 % of control and 104 % of control.
Regarding `CCOC(=O)N1CCN(CCCCCCOc2ccc(C3CCCCC3)cc2)CC1`, the T/C is, setting by setting: under setting [3], 106 % of control; under setting [4], 118 % of control; under setting [5], 123 % of control.
